Square brackets hold non-standard residues; d marks the D form. Peptide text beside a SMILES is read from it. * marks the point of attachment. Dolaproine = CO[C@@H]([C@@H]1CCCN1)[C@@H](C)C(=O)O; Dil = CC[C@H](C)[C@H](NC)[C@@H](CC(=O)O)OC; X1 = C[C@@H](N*)[C@@H](O)c1ccccc1; NMeV = CN[C@H](C(=O)O)C(C)C
How the values were obtained:
[1] = tested on: T24-human nectin-4 clone 108; assay: ADC cytotoxicity (CellTiter-Glo), high nectin-4 expression line; format: cell-based; conditions: T24 Nectin-4 clone 108, 5 days, ADC Formula XI DAR 8
Procedure: Plates were read after 5 days treatment using CellTiter-Glo Luminescent Cell Viability Assay. 100 ul/well CellTiter-Glo reagent were incubated in plates at room temperature for 10 min. Luminescence was read in the SpectraMax M5e. RLUs (Relative Light Units) were obtained with SoftMax Pro 5.4. Percentage of cell killing was calculated against no treatment as 0%. Data was graphed and analyzed using GraphPad Prism version 9.5.1. IC50 was determined via log(inhibitor) vs. response-variable slope (four parameters) curve fitting.
T24 cell line was engineered to express human nectin-4 and clonally selected. T24-human nectin-4 clone 108, a high expression clonal cell line, was seeded in culture medium (McCoy's 5A+1× GlutaMax+10% Heat Inactivated Fetal Bovine Serum+400 μg/ml G418). ADCs were added at final working concentration from 200 nM, 1:4 serially diluted in culture medium for 5 days.

[2] = tested on: HEKα cells (normal human epidermal keratinocytes); assay: Binding to normal human epidermal keratinocytes by flow cytometry; conditions: ADC (Formula XI, DAR of 8); read-out: EC50 of cell surface binding to normal human epidermal keratinocytes
Procedure: To characterize binding of nectin-4 antibodies and ADCs of the present disclosure to normal human epidermal keratinocytes, HEKα cells were plated in 150×25 mm tissue culture dish (Corning Inc.) in complete culture medium (Dermal Cell Basal Medium+Keratinocytes Growth Kit, ATCC) at 1 million per well to achieve confluency within 24 hours. The differentiation process progressed for an additional 5-10 days. Following the induction of differentiation, cells were dissociated with 2 mg/mL Type XI Collagenase from Clostridium histolyticum (Sigma-Aldrich) at 37° C. Cells were counted and aliquoted to a V-bottom polypropylene 96-well plate (Thermo Scientific Nunc) at 10^5 cells/well. Antibodies and ADCs were added to cells starting at 300 nM, 1:4 serially diluted in assay buffer (1×DPBS containing 2% FBS, Gibco). Cells were incubated on a microplate shaker at 4° C., protected from light for 1 hour. After incubation, cells were washed twice with 200 uL/well of assay buffer and stained with Alexa Fluor 647-conjugated AffiniPure F(ab')2 Fragment Goat Anti-Human IgG (H+L) (Jackson ImmunoResearch) at 1:1,000 dilution. Following an hour incubation at 4° C., cells were washed twice with 200 uL/well of assay buffer and stained with Zombie Green fixable viability dye (BioLegend) at 1:2,000 dilution. Cells were incubated on a microplate shaker at 4° C. for 20 minutes. […]

[3] = tested on: T24-human Nectin-4-eGFP clone 3 cells; assay: Internalization: degradation of nectin-4-eGFP signal by fluorescence imaging; format: cell-based; conditions: ADC (Formula XI, DAR of 8), 24 h time course
Procedure: T24 cell line was engineered to express human Nectin-4-eGFP and clonally selected for high expression. […] human Nectin-4-eGFP clone 3 cells were plated at 12,000 cells per well, in black clear-bottom CellCarrier Ultra 384-well microplates (Perkin Elmer) in complete culture medium (McCoy's 5A, modified, +10% FBS+Glutamax+400 μg/mL G418+Pen/Strep). Plates were covered with AeraSeal™ Sealing Films and incubated overnight at 37° C., 5% CO2. Next day, antibodies and ADCs were added to cells, starting at 300 nM at 1:3 dilution. Plates were covered with AeraSeal™ and placed in incubator for imaging on PerkinElmer Opera Phenix Screening System over a 24 h time course. Data were processed and analyzed in Harmony and Microsoft Excel and graphed in GraphPad Prism.

[4] = tested on: T24-human nectin4 clone147 cells; assay: In vitro CDC assay with human serum complement; format: cell-based; conditions: nectin-4 expressing T24 cell line
Procedure: T24 cell line was engineered to express high level of human Nectin4 and clonally selected. T24-human nectin4 clone147 cells were added in white clear-bottom 96-well tissue culture plates in assay medium (McCoy's 5A+1× GlutaMax+10% Heat Inactivated Fetal Bovine Serum) and incubated in the incubator at 37° C. with 5% CO2 overnight. Next day, 50 ul/well antibodies were added at final working concentration from 200 nM, 1:3 serially diluted in assay medium and incubated at 37° C. with 5% CO2 for one hour. Diluted human serum complement (1:3) was then added at 50 ul/well in assay medium and incubated at 37° C. with 5% CO2 for 3 hours. Plate was read using CellTiter-Glo Luminescent Cell Viability Assay. 100 ul/well CellTiter-Glo reagent were incubated in plates at room temperature for 10 min. Luminescence was read in the SpectraMax M5e. RLUs (Relative Light Units) were obtained with SoftMax Pro 5.4. Percentage of cell killing was calculated against no treatment. Data was graphed and analyzed using GraphPad Prism version 9.5.1.

[5] = tested on: T24 mScarlet clone 5 Nectin-4 negative cells; assay: Bystander killing of T24-mScarlet clone 5 cells co-cultured with T24-human nectin4 clone108 (imaging); format: cell-based; conditions: T24-mScarlet clone5 : T24-human nectin4 clone108 9:1, 5 days, ADC Formula XI DAR 8; read-out: IC50 of bystander effect
Procedure: T24 cell line was engineered to express mScarlet and clonally selected to test in bystander assay. T24-mScarlet clone5 and T24-human nectin4 clone108 were mixed and seeded at a total of 1000 cells/well/100 ul with a ratio of 9:1 in culture medium (McCoy's 5A+1× GlutaMax+10% Heat Inactivated Fetal Bovine Serum+400 μg/ml G418) in flat clear bottom 96-well plates. T24 mScarlet clone 5 cells were negative for nectin-4 expression. Plates were incubated at 37° C. with 5% CO2 overnight. Next day, ADCs were added at final working concentration from 50 nM, 1:4 serially diluted in culture medium. Plates were covered with Breathe-Easy® sealing membrane, placed in BioSpa and scanned in Cytation5 every day for 5 days.
Images of T24-mScarlet cells were captured and analyzed by Cytation5 with Gen5 Image Prime 3.11. Percentage of T24-mScarlet cell killing was calculated by decreased Integrated Intensity (area×mean intensity), normalized to zero hour and no treatment. Data was graphed and analyzed using GraphPad Prism version 9.5.1. IC50 was determined via log(inhibitor) vs. response-variable slope (four parameters) curve fitting.

NCI-H1781 cells = assay: ADC cytotoxicity (CellTiter-Glo), low nectin-4 expression line; format: cell-based; conditions: NCI H1781, 5 days, ADC Formula XI DAR 8
Procedure: NCI-H1781 cells, a low expression cell line, were seeded in white clear-bottom 96-well tissue culture plates in culture medium (RPMI 1640+1× GlutaMax+10% Heat Inactivated Fetal Bovine Serum+1 mM sodium pyruvate). Cells were incubated at 37° C. with 5% CO2 overnight. Next day, ADCs were added at final working concentration from 100 nM, 1:3 serially diluted in culture medium. Plates were covered with Breathe-Easy® sealing membrane and incubated at 37° C. with 5% CO2. Plates were read after 5 days treatment using CellTiter-Glo Luminescent Cell Viability Assay. 100 ul/well CellTiter-Glo reagent were incubated in plates at room temperature for 10 min. Luminescence was read in the SpectraMax M5e. RLUs (Relative Light Units) were obtained with SoftMax Pro 5.4. Percentage of cell killing was calculated against no treatment as 0%. Data was graphed and analyzed using GraphPad Prism version 9.5.1. IC50 was determined via log(inhibitor) vs. response-variable slope (four parameters) curve fitting.

[6] = tested on: UMUC3-Luc-GFP Nectin-4 negative cells; assay: Free payload cytotoxicity on UMUC3-Luc-GFP cells; format: cell-based; conditions: 5 days
Procedure: (§1) UMUC3 cell line was engineered to express human Nectin4 and two clonal populations with different levels of expression were selected. In flat white clear-bottom 96-well plates, UMUC3-hNectin4 clone F7/UMUC3-Luc-GFP cells were mixed and seeded at a total of 1500 cells/well/100 ul with a ratio of 4:1 in assay medium (MEM+1× GlutaMax+10% Heat Inactivated Fetal Bovine Serum+1 mM sodium pyruvate). UMUC3-hNectin4 clone E3/UMUC3-Luc-GFP cells were mixed and seeded at a total of 2100 cells/well/100 ul with a ratio of 6:1 in assay medium. UMUC3-Luc-GFP cells were negative for nectin-4 expression. Plates were incubated at 37° C. with 5% CO2 overnight. Next day, ADCs were added at final working concentration from 100 nM, 1:3 serially diluted in assay medium. To assess sensitivity of cell line to free payload, free payloads were added at final working concentration from 200 nM, 1:3 serially diluted in assay medium. […] Plates were read after 5-days treatment using ONE-Glo™ Luciferase Assay System. […] Luminescence was read in the SpectraMax M5e. […] Percentage of UMUC3-Luc-GFP killing was calculated against no treatment as 0%. Data was graphed and analyzed using Graphpad Prism version 9.5.1. IC50 was determined via log(inhibitor) vs. response (three parameters) curve fitting for bystander activity and log(inhibitor) vs. response (four parameters) for free payload cytotoxicity.

[7] = tested on: T24-hNectin-4 clone 14 cells (MMAE-resistant); assay: ADC cytotoxicity in MMAE-resistant cells (CellTiter-Glo); format: cell-based, human; conditions: T24-hNectin-4 clone 14, 5 days
Procedure: In T24 nectin-4 cells that are resistant to MMAE, two nectin-4 ADCs described herein and enfortumab vedotin were tested for activity. T24-hNectin-4 clone 14 cells were seeded at 500 per well in 100 ul culture medium, in white clear-bottom 96-well tissue culture plates and incubated at 37° C. with 5% CO2 overnight. The next day each ADC was serially diluted 1:4, with a starting concentration of 400 nM, in culture medium. One-hundred ul of each ADC dilution was added per well and the plates were covered with a Breathe-Easy® sealing membrane and incubated at 37° C. with 5% CO2. After 5 days of treatment, the plates were removed from the incubator, placed at room temperature for 15 minutes, and 100 ul medium per well was removed. One hundred ul of CellTiter-Glo reagent was added per well and the plates were incubated at room temperature for 10 minutes. RLUs (Relative Light Units) were obtained by SpectraMax M5e with SoftMax Pro 5.4. Percentage of cell killing was calculated against DMSO only (for free payloads) or no treatment (for ADCs) as 0%. Data was graphed and analyzed using Graphpad Prism version 9.5.1. IC50s were determined via log(inhibitor) vs. response-variable slope (four parameters) curve fitting.

[8] = tested on: UMUC3-Luc-GFP + UMUC3-hNectin4 clone F7; assay: Bystander killing of UMUC3-Luc-GFP cells co-cultured with UMUC3-hNectin4 clone F7 (ONE-Glo); format: cell-based, human
Procedure: as §1, with “overnight.” for “overnight. Next day, ADCs were added at final working concentration from 100 nM, 1:3 serially diluted in assay medium. To assess sensitivity of cell line to free payload, free payloads were added at final working concentration from 200 nM, 1:3 serially diluted in assay medium.”, “ONE-GloTM” for “ONE-Glo™”, “cytotoxicity. […] In experiments run as essentially described herein, the bystander effects of four nectin-4 ADCs described herein and enfortumab vedotin were evaluated using the UMUC3-hNectin-4 cloneF7/UMUC3-Luciferase-GFP cell pair. […]” for “cytotoxicity.”

[9] = tested on: UMUC3-Luc-GFP + UMUC3-hNectin4 clone E3; assay: Bystander killing of UMUC3-Luc-GFP cells co-cultured with UMUC3-hNectin4 clone E3 (ONE-Glo); format: cell-based, human; conditions: UMUC3-Luc-GFP + UMUC3-hNectin4 clone E3, ratio 6:1, 5 days; read-out: IC50 of bystander effect
Procedure: as §1

[10] = tested on: UM-UC-3 Nectin4 clone F7 xenograft; assay: Tumor xenograft, high nectin-4 expression; format: in vivo, mice (nu/nu); conditions: UMUC3 Nectin-4 clone F7 xenograft, single dose 2 mg/kg, day 40
Procedure: In order to test the efficacy of the nectin-4 ADCs of the present disclosure, which have effector null mutations in the Fc region, and to compare to the enfortumab antibody, which has wildtype Fc and in an ADC with the same payload background as the ones of this disclosure, two tumor xenograft models with either high or moderate nectin-4 expression were tested as described. Immune compromised female mice (nu/nu) between 5-8 weeks of age with weight 18-20 grams were implanted unilaterally on the right flank with UM-UC-3 Nectin4 clone F7 cells with high nectin-4 expression. […] The test articles were given at a single dose (2 mg/kg) formulated with 5% dextrose. Tumors were measured biweekly until Day 40.

MDA-MB-468 xenograft = assay: Tumor xenograft, moderate nectin-4 expression; format: in vivo, NSG mice; conditions: MDAMB468 xenograft, single dose 2 mg/kg, day 71
Procedure: In a separate study, female NSG mice between 5-6 weeks of age were injected subcutaneously with MDA-MB-468 cells with moderate Nectin-4 expression. When tumors reached approximately 150-250 mm^3; animals were matched by tumor volume into treatment or control groups and dosing initiated (Day 0, n=8 per group). The test articles were given at a single dose (2 mg/kg) formulated with 5% Dextrose. Tumors were measured biweekly until Day 71.
In both models, a 2 mg/kg single dose treatment of either the nectin-4 ADCs (exemplified herein with each of Abs1-8 conjugated as in Formula XI, and with a DAR of 8) or benchmark enfortumab ADC (enfortumab conjugated with Formula XI, and with a DAR of 8) was used. Tumor growth was measured at day 40 for UMUC3 Nectin-4 clone F7 and day 71 for MDAMB468 xenografts.

Enfortumab
IC50 [1]: 0.0747 nM
EC50 [2]: 0.03 nM
% activity (max GFP signal loss compared to enfortumab mAb (100%)) [3]: 119.9%
EC50 ([3]; read-out: EC50 of nectin-4-eGFP signal loss): 2.55 nM
CDC potential [4]: did not show CDC potential
IC50 [5]: 0.0593 nM
IC50 (NCI-H1781 cells): 0.0409 nM

CC[C@H](C)[C@@H]([C@@H](CC(=O)N1CCC[C@H]1[C@H](OC)[C@@H](C)C(=O)N[C@H](C)[C@@H](O)c1ccccc1)OC)N(C)C(=O)[C@@H](NC(=O)[C@@H](NC)C(C)C)C(C)C [MMAE] (H-[NMeV]V[Dil][Dolaproine]-X1)
IC50 [6]: 0.38 nM

Enfortumab vedotin [reference compound]
Activity against MMAE-resistant cells [7]: lost efficacy
IC50 ([8]; UMUC3-Luc-GFP + UMUC3-hNectin4 clone F7, ratio 4:1, 5 days, read-out: IC50 of bystander effect): 4.3 nM
Bystander effect (in words) ([8]; UMUC3-hNectin-4 cloneF7/UMUC3-Luciferase-GFP 4:1, 5 days): much less potent bystander effect
IC50 [9]: 0.35 nM

Enfortumab ADC: benchmark: enfortumab conjugated with Formula XI, and with a DAR of 8 [reference compound]
Mean tumor volume [10]: 812.22 mm^3
Mean tumor volume (MDA-MB-468 xenograft): 272.28 mm^3

Reference: patent US20250000991A1, “NECTIN-4 ANTIBODIES AND ANTIBODY-DRUG CONJUGATES” (Eli Lilly and Company, priority 2023, published 2025)
